Read-outs that look alike come from different tables or passages of the source.
How the values were obtained:
Type in all cases: cell-based
[1] = test system: Human breast cancer cell line T-47D; assay: Caspase cascade activation (Ac-DEVD-R110 fluorogenic substrate) in T-47D cells; conditions: T47D
Description: (§1) Human breast cancer cell line T-47D, human hepatocellular carcinoma cell line SNU398 and human colon carcinoma cell line HCT116 were grown according to media component mixtures designated by American Type Culture Collection+10% FCS (Invitrogen Corporation), in a 5% CO2-95% humidity incubator at 37° C. T-47D and H1299 cells were maintained at a cell density between 50 and 80% confluency at a cell density of 0.1 to 0.6×10^6 cells/mL. Cells were harvested at 600×g and resuspended at 0.65×10^6 cells/mL into appropriate media+10% FCS. An aliquot of 22.5 μL of cells was added to a well of a 384-well microtiter plate containing 2.5 μL of a 10% DMSO in RPMI-1640 media solution containing 0.16 to 100 μM of 5,7-dihydro-N-(3,5-dimethoxyphenyl)-2-(methylthio)furo[3,4-d]pyrimidin-4-amine or other test compound (0.016 to 10 μM final). An aliquot of 22.5 μL of cells was added to a well of a 384-well microtiter plate containing 2.5 μL of a 10% DMSO in RPMI-1640 media solution without test compound as the control sample. The samples were mixed by agitation and then incubated at 37° C. for 24 or 48 h in a 5% CO2-95% humidity incubator. After incubation, the samples were removed from the incubator and 25 μL of a solution containing 14 μM of N-(Ac-DEVD)-N′-ethoxycarbonyl-R110 (SEQ ID No.:1) fluorogenic substrate (Cytovia, Inc.; WO99/18856), 20% sucrose (Sigma), 20 mM DTT (Sigma), 200 mM NaCl (Sigma), 40 mM Na PIPES buffer pH 7.2 (Sigma), and 500 µg/mL lysolecithin (Calbiochem) was added. The samples were mixed by agitation and incubated at room temperature. Using a fluorescent plate reader (Model SPECTRAfluor Plus, Tecan), an initial reading (T=0) was made approximately 1-2 min after addition of the substrate solution, employing excitation at 485 nm and emission at 530 nm, to determine the background fluorescence of the control sample. After the 3 h incubation, the samples were read for fluorescence as above (T=3 h).
(§2) The Relative Fluorescence Unit values (RFU) were used to calculate the sample readings as follows: RFU(T=3h)−Control RFU(T=0)=Net RFU(T=3h)
(§3) The activity of caspase cascade activation was determined by the ratio of the net RFU value for 5,7-dihydro-N-(3,5-dimethoxyphenyl)-2-(methylthio)furo[3,4-d]pyrimidin-4-amino or other test compound to that of control samples. The EC50 (nM) was determined by a sigmoidal dose-response calculation (Prism 3.0, GraphPad Software Inc.).

HCT116 cells = assay: Inhibition of cell proliferation (GI50, CellTiter-Glo) in HCT116 cells; conditions: Homo sapiens, HCT-116, 48 h, read-out: GI50 in Cancer Cells HCT116
Description: (§4) T-47D, MX-1, SNU398 and HCT116 cells were grown and harvested as in Example 33. An aliquot of 90 μL of cells (4.4×10^4 cells/mL) was added to a well of a 96-well microtiter plate containing 5 μL of a 10% DMSO in RPMI-1640 media solution containing 10 nM to 100 μM of 5,7-dihydro-N-(3,5-dimethoxyphenyl)-2-(methylthio)furo[3,4-d]pyrimidin-4-amine (1 nM to 10 μM final) or related compounds. An aliquot of […] of cells was added to a well of a 96-well microtiter plate containing 5 μL of a 10% DMSO in RPMI-1640 media solution without compound as the control sample for maximal cell proliferation (LMax). The samples were mixed by agitation and then incubated at 37° C. for 48 h in a 5% CO2-95% humidity incubator. After incubation, the samples were removed from the incubator and 25 μL of CellTiter-Glo™ reagent (Promega) was added. The samples were mixed by agitation and incubated at room temperature for 10-15 min. Plates were then read using a luminescent plate reader (Model SPECTRAfluor Plus, Tecan) to give Ltest values.
(§5) Baseline for GI50 (dose for 50% inhibition of cell proliferation) of initial cell numbers was determined by adding an aliquot of 45 μL of cells or 45 μL of media, respectively, to wells of a 96-well microtiter plate containing 5 μL of a 10% DMSO in RPMI-1640 media solution. The samples were mixed by agitation and then incubated at 37° C. for 0.5 h in a 5% CO2-95% humidity incubator. After incubation, the samples were removed from the incubator and 25 μL of CellTiter-Glo™ reagent (Promega) was added. The samples were mixed by agitation and incubated at 37° C. for 10-15 min at room temperature in a 5% CO2-95% humidity incubator. Fluorescence was read as above, (LStart) defining luminescence for initial cell number used as baseline in GI50 determinations.
(§6) GI50 (dose for 50% inhibition of cell proliferation) is the concentration where [(LTest−LStart)/(LMax−LStart)]=0.5.

[2] = test system: breast cancer cell line SKBR3; assay: Caspase cascade activation (24 h assay) in SKBR3 cells; conditions: Homo sapiens, SK-BR-3, 24 h assay (Table II), read-out: Caspase Activation Potency EC50 (24 h) SKBR3
Description: [The procedure below names another cell line; the source lists this cell line under the same test.] Human breast cancer cell line T-47D, human hepatocellular carcinoma cell line SNU398 and human colon carcinoma cell line HCT116 were grown according to media component mixtures designated by American Type Culture Collection+10% FCS (Invitrogen Corporation), in a 5% CO2-95% humidity incubator at 37° C. T-47D and H1299 cells were maintained at a cell density between 50 and 80% confluency at a cell density of 0.1 to 0.6×10^6 cells/mL. Cells were harvested at 600×g and resuspended at 0.65×10^6 cells/mL into appropriate media+10% FCS. […] Using a fluorescent plate reader (Model SPECTRAfluor Plus, Tecan), an initial reading (T=0) was made approximately 1-2 min after addition of the substrate solution, employing excitation at 485 nm and emission at 530 nm, to determine the background fluorescence of the control sample. After the 3 h incubation, the samples were read for fluorescence as above (T=3 h).
as §2
as §3, with “Inc.). […]” for “Inc.).”

SNU398 cells = assay: Inhibition of cell proliferation (GI50, CellTiter-Glo) in SNU398 cells; conditions: Homo sapiens, SNU-398, 48 h, read-out: GI50 in Cancer Cells SNU398
Description: as §4, §5, §6

T-47D cells = assay: Inhibition of cell proliferation (GI50, CellTiter-Glo) in T-47D cells; conditions: Homo sapiens, T47D, 48 h, read-out: GI50 in Cancer Cells T47D
Description: as §4, §5, §6

[3] = test system: human hepatocellular carcinoma cell line SNU398; assay: Caspase cascade activation (Ac-DEVD-R110 fluorogenic substrate) in SNU398 cells
Description: as §1, §2, §3

MX-1 cells = assay: Inhibition of cell proliferation (GI50, CellTiter-Glo) in MX-1 cells; conditions: Homo sapiens, MX1, 48 h, read-out: GI50 in Cancer Cells MX1
Description: as §4, §5, §6

[4] = test system: human colon carcinoma cell line HCT116; assay: Caspase cascade activation (Ac-DEVD-R110 fluorogenic substrate) in HCT116 cells; conditions: HCT-116, incubated 24 or 48 h (Table I), 0.016 to 10 μM final, read-out: Caspase Activation Potency EC50 HCT116
Description: as §1, §2, §3

[5] = test system: murine leukemia cell line P388; assay: Inhibition of cell proliferation (GI50) in P388 cells; conditions: Mus musculus, read-out: GI50 in Multi-Cancer Cells P388
Description: [The procedure below names another organism; the source lists this organism under the same test.] as §4
(§7) Baseline for GI50 (dose for 50% inhibition of cell proliferation) of initial cell numbers was determined by adding an aliquot of 45 μL of cells or 45 μL of media, respectively, to wells of a 96-well microtiter plate containing 5 μL of a 10% DMSO in RPMI-1640 media solution. […]

[6] = test system: human breast cancer cell lines MDAMB435; assay: Inhibition of cell proliferation (GI50) in MDAMB435 cells; conditions: MDA-MB-435, read-out: GI50 in Multi-Cancer Cells MDAMB435
Description: [The procedure below names another cell line; the source lists this cell line under the same test.] as §4, §7

[7] = test system: multi-drug resistant (MDR) murine leukemia cell line P388ADR; assay: Inhibition of cell proliferation (GI50) in P388ADR cells; conditions: Mus musculus, P388/ADR, read-out: GI50 in Multi-Cancer Cells P388ADR
Description: [The procedure below names another organism; the source lists this organism under the same test.] as §4, §7

[8] = test system: human lung cancer cell line H1299; assay: Caspase cascade activation (24 h assay) in H1299 cells; conditions: NCI-H1299, 24 h assay (Table II), read-out: Caspase Activation Potency EC50 (24 h) H1299
Description: as §1, with “After incubation, the samples were removed from the incubator and 25 μL of a solution containing 14 μM of N-(Ac-DEVD)-N′-ethoxycarbonyl-R110 (SEQ ID No.:1) fluorogenic substrate (Cytovia, Inc.; WO99/18856), 20% sucrose (Sigma), 20 mM DTT (Sigma), 200 mM NaCl (Sigma), 40 mM Na PIPES buffer pH 7.2 (Sigma), and 500 µg/mL lysolecithin (Calbiochem) was added. The samples were mixed by agitation and incubated at room temperature.” left out
as §2
as §3, with “Inc.). […]” for “Inc.).”

[9] = test system: multi-drug resistant (MDR) human sarcoma cell line MES-SA/ADR; assay: Inhibition of cell proliferation (GI50) in MES-SA/ADR cells; conditions: read-out: GI50 in Multi-Cancer Cells MES-SA/ADR
Description: [The procedure below names another cell line; the source lists this cell line under the same test.] as §4, §7

[10] = test system: human sarcoma cell line MES-SA; assay: Inhibition of cell proliferation (GI50) in MES-SA cells; conditions: read-out: GI50 in Multi-Cancer Cells MES-SA
Description: [The procedure below names another cell line; the source lists this cell line under the same test.] as §4, §7

[11] = 24 h assay (Table II), read-out: Caspase Activation Potency EC50 (24 h) T47D
[12] = T-47D, incubated 24 or 48 h (Table I), 0.016 to 10 μM final, read-out: Caspase Activation Potency EC50 T-47D
[13] = SNU-398, 24 h assay (Table II), read-out: Caspase Activation Potency EC50 (24 h) SNU398
[14] = SNU-398, incubated 24 or 48 h (Table I), 0.016 to 10 μM final, read-out: Caspase Activation Potency EC50 SNU398

SMILES	EC50 [1, 11] [nM]	EC50 [1, 12] [nM]	GI50 (HCT116 cells) [nM]	EC50 [2] [nM]	GI50 (SNU398 cells) [nM]	GI50 (T-47D cells) [nM]	EC50 [3, 13] [nM]	EC50 [3, 14] [nM]	GI50 (MX-1 cells) [nM]	EC50 [4] [nM]	GI50 [5] [nM]	GI50 [6] [nM]	GI50 [7] [nM]	EC50 [8] [nM]	GI50 [9] [nM]	GI50 [10] [nM]
COc1cc(Nc2nc(SC)nc3c2COC3)cc(OC)c1 [Example 7, 5,7-Dihydro-N-(3,5-dimethoxyphenyl)-2-(methylthio)furo[3,4-d]pyrimidin-4-amine]	54	61	3000	118	3740	183	> 10000	4710	27	5500						
COc1ccc(N(C)c2nc(SC)nc3c2CCC3)cc1 [Example 23, 6,7-Dihydro-N-(4-methoxyphenyl)-N-methyl-2-(methylthio)-5H-cyclopenta[d]pyrimidin-4-amine]	32	31				46	35		50		14	4	21	43	26	26
COc1ccc(OC)c(Nc2nc(SC)nc3c2CCC3)c1 [Example 18, 6,7-Dihydro-N-(2,5-dimethoxyphenyl)-2-(methylthio)-5H-cyclopenta[d]pyrimidin-4-amine]	82	134	> 10000		> 10000	21	> 10000	1320	200	286				934		
COc1ccc(OC)c(Nc2ncnc3c2CCC3)c1 [Example 25, 6,7-Dihydro-N-(2,5-dimethoxyphenyl)-5H-cyclopenta[d]pyrimidin-4-amine]	244	260	> 10000	355	> 10000	1000	> 10000	> 10000	890	> 10000				> 10000		
COc1cc(Nc2nc([S+](C)[O-])nc3c2CCC3)cc(OC)c1 (centres unmarked) [Example 27, 6,7-Dihydro-N-(3,5-dimethoxyphenyl)-2-(methylsulfinyl)-5H-cyclopenta[d]pyrimidin-4-amine]		164	> 10000		> 10000	500		> 10000	600	> 10000						
COc1cc(Nc2ncnc3c2CCC3)cc(OC)c1 [Example 24, 6,7-Dihydro-N-(3,5-dimethoxyphenyl)-5H-cyclopenta[d]pyrimidin-4-amine]		987	> 10000		> 10000	5000		> 10000	5000	> 10000						

From patent publication US20080113946A1, “N-aryl-5,7-dihydrofuro[3,4-d]pyrimidin-4-amines and analogs as activators of caspases and inducers of apoptosis and the use thereof” (Cyntovia, Inc., priority 2006, published 2008)
